# Reference: US20240101576A1, “HETEROCYCLIC INHIBITORS OF EGFR AND/OR HER2, FOR USE IN THE TREATMENT OF CANCER” (Scorpion Therapeutics, Inc., priority 2020, published 2024)
# How the values were obtained:
# Assay type in all cases: cell-based
# EGFR WT (Ba/F3 cells) = molecular target: T1, EGFR WT (Ba/F3 cells) (Homo sapiens, UniProt P00533); assay: Inhibitor activity on EGFR-dependent cell growth (CellTiter-Glo, 72 h), Ba/F3 EGFR WT; conditions: read-out: BaF3 WT IC50
# T1 construct: expressed in transfected cells; host or cells: Ba/F3 (murine pro-B cells), retroviral transduction, puromycin selection, maintained with EGF
# Outline: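 This growth assay used Ba/F3 cells that depend on wild-type EGFR and are kept in EGF without IL3. Compounds were made up as 10 mM DMSO stocks and diluted 3-fold over 10 points. 120 nL went onto 600 cells/well. After 72 hours, 40 μL CellTiter-Glo was added and luminescence read on EnVision after 30 min.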
# [1] = molecular target: T2, EGFR exon 20 ASV Ins V769_D770 (Ba/F3 cells) (Homo sapiens, UniProt P00533, INS769ASV); assay: Inhibitor activity on EGFR-dependent cell growth (CellTiter-Glo, 72 h), Ba/F3 EGFR exon 20 ASV Ins; conditions: read-out: BaF3 ASV IC50
# T2 construct: expressed in transfected cells; host or cells: Ba/F3 (murine pro-B cells), retroviral transduction, puromycin selection, IL3-independent pool
# Outline: (§1)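 IC50s derive from a sigmoidal dose–response fit of CellTiter-Glo signal. The signal was normalised between […]-treated cells and cell-free medium. Ba/F3 mutant-EGFR cells, seeded at 400–800/well depending on the line, had 72 h of exposure to a 10-point, 3-fold compound series.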
# [2] = molecular target: T3, EGFR exon 20 NPG Ins D770_N771 (Ba/F3 cells) (Homo sapiens, UniProt P00533, INS770NPG); assay: Inhibitor activity on EGFR-dependent cell growth (CellTiter-Glo, 72 h), Ba/F3 EGFR exon 20 NPG Ins; conditions: read-out: BaF3 NPG IC50
# T3 construct: expressed in transfected cells; host or cells: Ba/F3 (murine pro-B cells), retroviral transduction, puromycin selection, IL3-independent pool
# Text: Example A. Inhibitor Activity on EGFR-Dependent Cell Growth
# Cell lines are generated by transducing Ba/F3 cells with retroviruses containing vectors with EGFR WT, EGFR L858R, EGFR exon 19del, EGFR L858R/C797S, EGFR exon 20 NPG Ins D770_N771, EGFR exon 20 ASV Ins V769_D770, EGFR exon 20 SVD Ins D770_N771, or EGFR exon 20 FQEA Ins A763_V764 genes and a puromycin selection marker. Transduced cells are selected with puromycin for 7 days and are then be transferred into culture media without Interleukin 3 (IL3). EGFR WT cells are maintained with supplemental EGF. Surviving cells are confirmed to express EGFR by Western blot and maintained as a pool. The IC50 date were included in Table 6 and Table 7.
# 1.1 Cells are harvested from flask into cell culture medium and the cell number counted.
# 1.2 Cells are diluted with culture medium to the desired density and 40 μL of cell suspension is added into each well of 384-well cell culture plate and the seeding density is 800 (FQEA, exon 19del), 600 (WT, NPG, L858R/C797S), or 400 (ASV, SVD, L858R) cells/well.
# 2 Compound Preparation and Treatment
# 2.1 Test compounds are dissolved to 10 mM in a DMSO stock solution. 45 μL of stock solution is transferred to a 384 polypropylene plate (pp-plate). Perform 3-fold, 10-point dilution via transferring 15 μL compound into 30 μL DMSO using a TECAN (EVO200) liquid handler.
# 2.2 Spin plates at room temperature at 1,000 RPM for 1 minute.
# 2.3 Transfer 120 nL of diluted compound from compound source plate into the cell plate.
# 2.4 After compound treatment for 72 hours, perform CTG detection for compound treatment plates as described in “Detection” section.
# 3.1 Plates are removed from incubators and equilibrated at room temperature for 15 minutes.
# 3.2 Thaw the CellTiter Glo reagents and allow to equilibrate to room temperature before the experiment.
# 3.3 Add 40 μL of CellTiter-Glo reagent into each well (at 1:1 to culture medium). Then place the plates at room temperature for 30 min followed by reading on EnVision.
# 4.1 Inhibition activity is calculated following the formula below:
# % Inhibition=100×(LumHC−LumSample)/(LumHC−LumLC) • where HC is obtained from cells treated with 0.1% DMSO only; and LC is obtained from culture medium only.
# 4.2 2. Calculate the IC50 by fitting the Curve using Xlfit (v5.3.1.3), equation 201.
# Y=Bottom+(Top−Bottom)/(1+10^((Log IC50−X)*HillSlope))
# [3] = molecular target: T4, EGFR exon 20 SVD Ins D770_N771 (Ba/F3 cells) (Homo sapiens, UniProt P00533, INS770SVD); assay: Inhibitor activity on EGFR-dependent cell growth (CellTiter-Glo, 72 h), Ba/F3 EGFR exon 20 SVD Ins; conditions: read-out: BaF3 SVD IC50
# T4 construct: expressed in transfected cells; host or cells: Ba/F3 (murine pro-B cells), retroviral transduction, puromycin selection, IL3-independent pool
# Outline: as §1
# T3 sequence (P00533 with tags, fused parts or gaps INS770NPG): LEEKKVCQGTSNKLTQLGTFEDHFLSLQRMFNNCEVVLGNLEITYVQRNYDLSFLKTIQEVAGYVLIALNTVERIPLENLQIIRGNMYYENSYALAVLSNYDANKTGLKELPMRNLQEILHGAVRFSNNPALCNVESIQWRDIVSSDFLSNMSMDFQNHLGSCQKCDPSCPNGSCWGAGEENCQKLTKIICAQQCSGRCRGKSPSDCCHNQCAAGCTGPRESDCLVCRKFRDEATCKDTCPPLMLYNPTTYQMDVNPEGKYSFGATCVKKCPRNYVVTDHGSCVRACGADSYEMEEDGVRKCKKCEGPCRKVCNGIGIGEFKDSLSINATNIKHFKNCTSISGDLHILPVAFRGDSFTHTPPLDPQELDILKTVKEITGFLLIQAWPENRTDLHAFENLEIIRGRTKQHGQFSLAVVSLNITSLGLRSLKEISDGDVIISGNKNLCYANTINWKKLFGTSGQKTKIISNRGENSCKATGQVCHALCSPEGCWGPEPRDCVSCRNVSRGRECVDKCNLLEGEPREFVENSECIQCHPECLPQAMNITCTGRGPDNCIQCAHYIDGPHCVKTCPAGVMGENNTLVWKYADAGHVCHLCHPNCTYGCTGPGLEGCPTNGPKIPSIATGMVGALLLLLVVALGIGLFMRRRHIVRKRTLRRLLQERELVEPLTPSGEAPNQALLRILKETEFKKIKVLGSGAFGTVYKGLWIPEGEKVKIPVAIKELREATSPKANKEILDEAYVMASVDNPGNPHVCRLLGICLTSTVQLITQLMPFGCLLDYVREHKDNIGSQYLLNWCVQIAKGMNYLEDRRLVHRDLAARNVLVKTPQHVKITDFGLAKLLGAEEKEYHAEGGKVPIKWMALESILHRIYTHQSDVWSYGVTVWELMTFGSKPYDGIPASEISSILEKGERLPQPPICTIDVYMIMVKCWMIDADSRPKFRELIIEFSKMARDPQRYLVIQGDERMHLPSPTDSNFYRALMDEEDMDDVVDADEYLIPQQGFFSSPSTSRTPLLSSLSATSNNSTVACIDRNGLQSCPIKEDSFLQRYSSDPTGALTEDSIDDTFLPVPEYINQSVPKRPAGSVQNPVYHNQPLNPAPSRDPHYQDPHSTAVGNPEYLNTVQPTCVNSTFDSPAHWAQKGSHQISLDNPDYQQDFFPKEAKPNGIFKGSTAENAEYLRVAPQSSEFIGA
# T2 sequence (P00533 with tags, fused parts or gaps INS769ASV): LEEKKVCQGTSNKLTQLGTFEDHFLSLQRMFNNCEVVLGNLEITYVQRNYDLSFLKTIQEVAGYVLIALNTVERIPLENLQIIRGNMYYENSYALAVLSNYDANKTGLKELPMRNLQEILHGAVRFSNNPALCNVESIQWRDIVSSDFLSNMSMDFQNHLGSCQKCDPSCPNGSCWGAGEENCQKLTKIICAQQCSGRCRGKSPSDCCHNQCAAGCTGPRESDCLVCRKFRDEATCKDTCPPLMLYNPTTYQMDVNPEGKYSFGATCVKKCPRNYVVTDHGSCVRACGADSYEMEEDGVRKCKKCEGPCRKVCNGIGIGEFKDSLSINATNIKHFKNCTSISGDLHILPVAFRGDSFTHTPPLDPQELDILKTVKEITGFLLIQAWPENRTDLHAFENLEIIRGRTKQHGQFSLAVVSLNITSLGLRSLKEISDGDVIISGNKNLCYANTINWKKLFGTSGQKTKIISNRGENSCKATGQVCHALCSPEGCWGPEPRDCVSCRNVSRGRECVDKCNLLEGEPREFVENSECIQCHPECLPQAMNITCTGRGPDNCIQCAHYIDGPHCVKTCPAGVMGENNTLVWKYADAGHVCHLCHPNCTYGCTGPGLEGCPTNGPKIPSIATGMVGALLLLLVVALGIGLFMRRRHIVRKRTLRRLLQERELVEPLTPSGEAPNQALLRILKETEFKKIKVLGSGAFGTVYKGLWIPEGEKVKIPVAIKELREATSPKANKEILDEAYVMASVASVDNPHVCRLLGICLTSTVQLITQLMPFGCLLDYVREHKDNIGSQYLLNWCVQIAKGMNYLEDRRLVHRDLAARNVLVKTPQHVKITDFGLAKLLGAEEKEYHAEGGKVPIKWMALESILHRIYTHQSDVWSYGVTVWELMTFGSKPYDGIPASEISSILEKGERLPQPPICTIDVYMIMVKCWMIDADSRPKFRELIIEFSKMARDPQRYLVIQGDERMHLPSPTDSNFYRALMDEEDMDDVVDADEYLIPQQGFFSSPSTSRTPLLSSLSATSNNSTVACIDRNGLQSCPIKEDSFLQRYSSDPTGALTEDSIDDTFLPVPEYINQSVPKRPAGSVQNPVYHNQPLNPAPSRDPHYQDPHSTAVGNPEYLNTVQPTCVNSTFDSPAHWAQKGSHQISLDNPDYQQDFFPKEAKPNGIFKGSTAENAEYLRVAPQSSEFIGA
# T1 sequence (P00533 25-1210): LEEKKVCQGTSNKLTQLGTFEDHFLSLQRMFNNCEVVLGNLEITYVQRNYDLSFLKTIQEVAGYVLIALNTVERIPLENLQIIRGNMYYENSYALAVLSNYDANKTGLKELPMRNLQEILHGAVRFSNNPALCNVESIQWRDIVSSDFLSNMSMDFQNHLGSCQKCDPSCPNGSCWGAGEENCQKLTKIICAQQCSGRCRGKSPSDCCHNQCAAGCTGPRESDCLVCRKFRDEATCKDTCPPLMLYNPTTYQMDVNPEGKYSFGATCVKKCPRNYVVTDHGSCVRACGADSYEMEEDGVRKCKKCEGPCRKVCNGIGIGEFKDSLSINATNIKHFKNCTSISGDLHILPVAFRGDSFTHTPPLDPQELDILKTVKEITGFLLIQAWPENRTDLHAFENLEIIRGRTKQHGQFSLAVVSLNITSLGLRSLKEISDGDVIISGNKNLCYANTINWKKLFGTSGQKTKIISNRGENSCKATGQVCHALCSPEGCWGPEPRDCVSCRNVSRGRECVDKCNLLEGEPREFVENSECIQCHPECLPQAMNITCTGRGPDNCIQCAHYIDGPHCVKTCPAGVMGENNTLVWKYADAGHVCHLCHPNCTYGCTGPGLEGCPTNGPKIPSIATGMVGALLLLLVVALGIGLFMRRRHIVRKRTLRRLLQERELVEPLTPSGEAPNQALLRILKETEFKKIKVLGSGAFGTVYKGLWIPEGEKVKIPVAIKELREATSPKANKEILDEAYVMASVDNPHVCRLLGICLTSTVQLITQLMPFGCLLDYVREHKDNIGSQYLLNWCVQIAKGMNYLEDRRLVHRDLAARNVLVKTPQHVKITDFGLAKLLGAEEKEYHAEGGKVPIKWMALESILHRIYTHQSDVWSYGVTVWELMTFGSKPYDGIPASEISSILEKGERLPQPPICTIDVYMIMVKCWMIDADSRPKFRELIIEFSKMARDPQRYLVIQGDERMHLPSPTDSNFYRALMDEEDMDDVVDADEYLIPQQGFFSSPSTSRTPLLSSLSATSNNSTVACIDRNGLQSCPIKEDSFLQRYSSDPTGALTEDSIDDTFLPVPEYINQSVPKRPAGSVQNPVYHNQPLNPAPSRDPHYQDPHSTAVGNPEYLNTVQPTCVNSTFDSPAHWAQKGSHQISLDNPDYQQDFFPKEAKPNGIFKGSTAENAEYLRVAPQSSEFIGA
# T4 sequence (P00533 with tags, fused parts or gaps INS770SVD): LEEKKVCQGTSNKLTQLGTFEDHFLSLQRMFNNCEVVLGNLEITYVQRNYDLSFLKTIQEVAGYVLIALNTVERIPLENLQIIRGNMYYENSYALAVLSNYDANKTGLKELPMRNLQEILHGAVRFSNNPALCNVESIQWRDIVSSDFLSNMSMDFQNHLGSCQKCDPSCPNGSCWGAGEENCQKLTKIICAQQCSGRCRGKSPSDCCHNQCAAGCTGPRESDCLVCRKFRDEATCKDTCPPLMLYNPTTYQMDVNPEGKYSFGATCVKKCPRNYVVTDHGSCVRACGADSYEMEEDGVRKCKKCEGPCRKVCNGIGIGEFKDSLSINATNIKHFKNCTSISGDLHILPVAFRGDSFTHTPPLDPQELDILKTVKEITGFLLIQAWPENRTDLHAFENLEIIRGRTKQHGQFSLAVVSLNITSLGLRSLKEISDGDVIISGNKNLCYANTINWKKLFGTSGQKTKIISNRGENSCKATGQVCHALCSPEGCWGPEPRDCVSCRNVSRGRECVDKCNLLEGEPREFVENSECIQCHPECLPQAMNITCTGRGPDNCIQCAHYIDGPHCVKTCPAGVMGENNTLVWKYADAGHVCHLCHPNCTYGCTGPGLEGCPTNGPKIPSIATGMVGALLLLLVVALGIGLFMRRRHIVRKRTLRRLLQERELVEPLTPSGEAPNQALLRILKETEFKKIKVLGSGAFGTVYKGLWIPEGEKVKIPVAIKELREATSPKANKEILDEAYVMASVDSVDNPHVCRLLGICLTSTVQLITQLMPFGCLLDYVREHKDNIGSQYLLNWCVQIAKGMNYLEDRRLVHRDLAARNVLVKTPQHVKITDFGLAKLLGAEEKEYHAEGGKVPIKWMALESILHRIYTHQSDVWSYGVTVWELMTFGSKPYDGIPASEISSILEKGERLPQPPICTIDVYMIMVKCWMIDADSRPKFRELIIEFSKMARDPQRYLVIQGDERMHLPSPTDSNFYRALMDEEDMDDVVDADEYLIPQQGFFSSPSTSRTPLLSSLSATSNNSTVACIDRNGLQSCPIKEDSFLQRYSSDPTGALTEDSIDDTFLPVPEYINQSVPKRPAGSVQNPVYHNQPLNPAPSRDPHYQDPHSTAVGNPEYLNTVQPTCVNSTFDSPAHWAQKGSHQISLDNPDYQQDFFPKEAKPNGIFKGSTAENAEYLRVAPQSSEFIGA
IC50 (EGFR WT (Ba/F3 cells)),IC50 [1],IC50 [2],IC50 [3],SMILES
> 1000 nM,100 to 1000 nM,< 100 nM,< 100 nM,"COc1c(Cl)cccc1Nc1c(-c2ccnc(-c3cnn(C)n3)n2)[nH]c2c1C(=O)NCC2 [compound 543, 3-[(3-chloro-2-methoxyphenyl)amino]-2-[2-(2-methyl-1,2,3-triazol-4-yl)pyrimidin-4-yl]-1H,5H,6H,7H-pyrrolo[3,2-c]pyridin-4-one]"
100 to 1000 nM,< 100 nM,< 100 nM,< 100 nM,"C=CC(=O)N1CCC2(CC1)CNC(=O)c1c2[nH]c(-c2ccncc2F)c1Nc1cccc(Cl)c1F [Compound 586, 3′-[(3-chloro-2-fluorophenyl)amino]-2′-(3-fluoropyridin-4-yl)-1-(prop-2-enoyl)-5′,6′-dihydro-1′H-spiro[piperidine-4,7′-pyrrolo[3,2-c]pyridin]-4′-one]"
100 to 1000 nM,100 to 1000 nM,< 100 nM,100 to 1000 nM,"COC(=O)N1CCC2(CNC(=O)c3c2[nH]c(-c2ccncc2F)c3Nc2cccc(Cl)c2OC)C1 (single isomer, unassigned) [Compound 497]"
100 to 1000 nM,100 to 1000 nM,< 100 nM,< 100 nM,"COc1c(F)cccc1Nc1c(-c2ccnc3c(N)noc23)[nH]c2c1C(=O)NCC2 [compound 523, 2-{3-amino-[1,2]oxazolo[4,5-b]pyridin-7-yl}-3-[(3-fluoro-2-methoxyphenyl)amino]-1H,5H,6H,7H-pyrrolo[3,2-c]pyridin-4-one; trifluoroacetic acid]"
> 1000 nM,> 1000 nM,> 1000 nM,> 1000 nM,"CC#CC(=O)N1CCC2(CC1)CNC(=O)c1c2[nH]c(-c2ccncc2F)c1Nc1cccc(Cl)c1OC [Compound 555, 1-(but-2-ynoyl)-3′-[(3-chloro-2-methoxyphenyl)amino]-2′-(3-fluoropyridin-4-yl)-5′,6′-dihydro-1′H-spiro[piperidine-4,7′-pyrrolo[3,2-c]pyridin]-4′-one]"
> 1000 nM,> 1000 nM,> 1000 nM,> 1000 nM,"COc1c(F)cccc1Nc1c(-c2ccnc(Nc3nnn(C)c3C)n2)[nH]c2c1C(=O)NCC2 [compound 608, 2-{2-[(1,5-dimethyl-1,2,3-triazol-4-yl)amino]pyrimidin-4-yl}-3-[(3-fluoro-2-methoxyphenyl)amino]-1H,5H,6H,7H-pyrrolo[3,2-c]pyridin-4-one]"
> 1000 nM,100 to 1000 nM,100 to 1000 nM,100 to 1000 nM,"COc1c(F)cccc1Nc1c(-c2ccnc(C)n2)[nH]c2c1C(=O)NCC2C[C@@H]1COCCO1 (single isomer, unassigned) [Compound 605]"
> 1000 nM,100 to 1000 nM,100 to 1000 nM,100 to 1000 nM,C=CC(=O)NCC[C@H]1CNC(=O)c2c1[nH]c(-c1ccnc(C)n1)c2Nc1cccc(Cl)c1OC [compound 653]
> 1000 nM,100 to 1000 nM,< 100 nM,100 to 1000 nM,"COc1c(Cl)cccc1Nc1c(-c2ccnc(-c3cn(C)nn3)n2)[nH]c2c1C(=O)NCC2 [compound 545, 3-[(3-chloro-2-methoxyphenyl)amino]-2-[2-(1-methyl-1,2,3-triazol-4-yl)pyrimidin-4-yl]-1H,5H,6H,7H-pyrrolo[3,2-c]pyridin-4-one]"
100 to 1000 nM,< 100 nM,100 to 1000 nM,100 to 1000 nM,"C=CC(=O)N1CCC2(CC1)CNC(=O)c1c2[nH]c(-c2ccnc(N)n2)c1Nc1cccc(F)c1OC [Compound 162, 1-acryloyl-2′-(2-aminopyrimidin-4-yl)-3′-((3-fluoro-2-methoxyphenyl)amino)-5′,6′-dihydrospiro[piperidine-4,7′-pyrrolo[3,2-c]pyridin]-4′(1′H)-one]"
100 to 1000 nM,< 100 nM,< 100 nM,< 100 nM,"C=CC(=O)N1CCC2(CC1)CNC(=O)c1c2[nH]c(-c2ccncc2F)c1Nc1cccc(F)c1SC [Compound 560, 3′-{[3-fluoro-2-(methylsulfanyl)phenyl]amino}-2′-(3-fluoropyridin-4-yl)-1-(prop-2-enoyl)-5′,6′-dihydro-1′H-spiro[piperidine-4,7′-pyrrolo[3,2-c]pyridin]-4′-one]"
100 to 1000 nM,< 100 nM,< 100 nM,< 100 nM,COc1c(Cl)cccc1Nc1c(-c2ccnc(-c3cnn(C)c3)n2)[nH]c2c1C(=O)NCC2 [compound 121]
> 1000 nM,> 1000 nM,> 1000 nM,> 1000 nM,"COc1c(Cl)cccc1Nc1c(-c2ccnc(Nc3nnn(C)c3C)n2)[nH]c2c1C(=O)NCC2 [compound 607, 3-[(3-chloro-2-methoxyphenyl)amino]-2-{2-[(1,5-dimethyl-1,2,3-triazol-4-yl)amino]pyrimidin-4-yl}-1H,5H,6H,7H-pyrrolo[3,2-c]pyridin-4-one]"
< 100 nM,< 100 nM,< 100 nM,< 100 nM,"C=CC(=O)N1CCC2(CC1)CNC(=O)c1c2[nH]c(-c2ccncc2F)c1Nc1cccc(Cl)c1CC [Compound 558, 3′-[(3-chloro-2-ethylphenyl)amino]-2′-(3-fluoropyridin-4-yl)-1-(prop-2-enoyl)-5′,6′-dihydro-1′H-spiro[piperidine-4,7′-pyrrolo[3,2-c]pyridin]-4′-one]"
< 100 nM,< 100 nM,< 100 nM,< 100 nM,"C=CC(=O)N1CCC2(CC1)CNC(=O)c1c2[nH]c(-c2ccncn2)c1Nc1cccc(Cl)c1OC [Compound 478, 3′-[(3-chloro-2-methoxyphenyl)amino]-1-(prop-2-enoyl)-2′-(pyrimidin-4-yl)-5′,6′-dihydro-1′H-spiro[piperidine-4,7′-pyrrolo[3,2-c]pyridin]-4′-one]"
> 1000 nM,< 100 nM,< 100 nM,< 100 nM,"COc1c(F)cccc1Nc1c(-c2ccnc(C)n2)[nH]c2c1C(=O)NCC2C[C@H]1COCCO1 (single isomer, unassigned) [Compound 603]"
> 1000 nM,> 1000 nM,> 1000 nM,> 1000 nM,"CNC(=O)N1CC[C@]2(CNC(=O)c3c2[nH]c(-c2ccncc2F)c3Nc2cccc(Cl)c2OC)C1 [Compound 500, (3S)-3′-[(3-chloro-2-methoxyphenyl)amino]-2′-(3-fluoropyridin-4-yl)-N-methyl-4′-oxo-5′,6′-dihydro-1′H-spiro[pyrrolidine-3,7′-pyrrolo[3,2-c]pyridine]-1-carboxamide]"
> 1000 nM,> 1000 nM,> 1000 nM,> 1000 nM,"COC(=O)N1CC2(CNC(=O)c3c2[nH]c(-c2ccncc2F)c3Nc2cccc(Cl)c2OC)C1 [Compound 490, methyl 3′-[(3-chloro-2-methoxyphenyl)amino]-2′-(3-fluoropyridin-4-yl)-4′-oxo-5′,6′-dihydro-1′H-spiro[azetidine-3,7′-pyrrolo[3,2-c]pyridine]-1-carboxylate]"
> 1000 nM,> 1000 nM,100 to 1000 nM,> 1000 nM,"COC(=O)N1CC[C@@]2(CNC(=O)c3c2[nH]c(-c2ccncc2F)c3Nc2cccc(Cl)c2OC)C1 [Compound 498, methyl (3R)-3′-[(3-chloro-2-methoxyphenyl)amino]-2′-(3-fluoropyridin-4-yl)-4′-oxo-5′,6′-dihydro-1′H-spiro[pyrrolidine-3,7′-pyrrolo[3,2-c]pyridine]-1-carboxylate]"
